Data on 11 compounds can be found in US11261183B2, “Sulfoximine glycosidase inhibitors” (Asceneuron SA, priority 2016, dated 2022).

The target of series [1] is Human O-GlcNAcase (His-Tagged hOGA) (Homo sapiens (Human), UniProt O60502). Description: Human O-GlcNAcase enzyme inhibition assay. The class given is biochemical. The following applies: His-Tagged hOGA 20 nM, FL-GlcNAc 10 μM, 60 min, room temperature, pH 6.5; read-out: Enzymatic OGA IC50. Here is the method: Example B01: Human O-GlcNAcase enzyme inhibition assay
Sequence of Human O-GlcNAcase (His-Tagged hOGA) (O60502 whole entry): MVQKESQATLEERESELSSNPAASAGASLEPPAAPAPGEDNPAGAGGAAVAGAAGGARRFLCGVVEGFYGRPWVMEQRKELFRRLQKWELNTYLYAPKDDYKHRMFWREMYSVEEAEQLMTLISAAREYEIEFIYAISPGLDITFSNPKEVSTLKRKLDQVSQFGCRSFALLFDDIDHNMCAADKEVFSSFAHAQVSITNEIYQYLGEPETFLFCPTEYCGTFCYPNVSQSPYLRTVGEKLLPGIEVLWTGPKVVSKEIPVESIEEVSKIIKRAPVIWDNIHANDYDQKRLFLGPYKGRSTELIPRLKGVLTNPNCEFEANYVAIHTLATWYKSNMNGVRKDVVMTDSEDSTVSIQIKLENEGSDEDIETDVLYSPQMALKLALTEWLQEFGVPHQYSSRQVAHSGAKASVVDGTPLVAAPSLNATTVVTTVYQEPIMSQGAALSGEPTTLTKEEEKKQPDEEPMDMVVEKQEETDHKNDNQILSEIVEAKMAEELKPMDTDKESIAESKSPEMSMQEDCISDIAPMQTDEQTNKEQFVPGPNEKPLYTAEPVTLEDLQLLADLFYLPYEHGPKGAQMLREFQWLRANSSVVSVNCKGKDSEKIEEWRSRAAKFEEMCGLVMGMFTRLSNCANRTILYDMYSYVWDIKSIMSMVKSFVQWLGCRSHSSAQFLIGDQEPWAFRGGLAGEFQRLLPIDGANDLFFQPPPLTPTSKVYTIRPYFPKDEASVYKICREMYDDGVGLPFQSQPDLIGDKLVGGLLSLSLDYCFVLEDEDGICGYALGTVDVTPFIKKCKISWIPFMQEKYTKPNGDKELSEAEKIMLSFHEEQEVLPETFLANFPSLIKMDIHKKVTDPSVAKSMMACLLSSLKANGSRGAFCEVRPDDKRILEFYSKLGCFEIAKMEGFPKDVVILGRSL
5 μl of the appropriate concentration of a solution of inhibitor in McIlvaine's Buffer (pH 6.5) in 2% DMSO (for a dose response curve calculation) is added into each well of a 384-well plate (Greiner, 781900). Then, 20 nM of His-Tagged hOGA and 10 μM of FL-GlcNAc (Fluorescein mono-beta-D-(2-deoxy-2-N-acetyl) glucopyranoside; Marker Gene Technologies Inc, M1485) were added to the 384-well plate for a final volume of 20 μl. After incubation for 60 min at room temperature, the reaction was terminated by the addition of 10 μL of stop buffer (200 mM glycine, pH 10.75).

Series [2] in a line: Protein binding in mice plasma using Rapid Equilibrium Dialysis. The format is in vitro ADME, CD1 mice. To be noted: 37° C.; for fraction unbound at 5 h, 1 µM: male, CD1, mouse, plasma, pH 7.4, CD1 mouse plasma; for % fraction unbound in mouse plasma: CD1 mouse plasma, 5 hours. The procedure: Example B04: Protein binding in mice plasma using Rapid Equilibrium Dialysis
• CD1 Mice Plasma: pooled male, K2-EDTA ([…]2, Bioreclammation, USA • Phosphate Buffered Saline (1×PBS), pH 7.4, 100 mM (Sigma, Cat No. P4417) • RED inserts (Pierce, Cat No. 9006, 8 kDa MWCO) • Sample Analysis: LC-MS/MS Methods • Preparation of DMSO Stock Solution
From 20 mM DMSO stock solutions of reference and test compounds, 1 mM DMSO intermediate working solutions are prepared. From 1 mM intermediate working solutions, 100 μM DMSO working solutions are prepared. • Sample Preparation Procedure:
Selected plasma is brought from −20° C. to 37° C. using water bath before its use. Test solution is prepared by adding the DMSO working solution of the reference or test compound (2 μL; 100 μM) to the selected plasma (198 μL). Spiked plasma (200 μl) is transferred to sample compartment of RED insert placed in the teflon plate. 350 μl of 1×PBS is added in the buffer compartment of RED insert. The teflon plate is covered with sealing mat and agitated at 37° C. for 5 hours at 500 RPM in a Thermomixer. After incubation time, an aliquot of plasma (50 μl) from sample compartment is mixed with blank 1×PBS (50 μl). Similarly, an aliquot of buffer (50 μl) from buffer compartment is mixed with blank plasma (50 μl). Quenching solution (200 μL, acetonitrile containing internal standard tolbutamide (0.5 μg/mL)) is added and the resulting solutions are mixed using a vortex mixer and centrifuged (Eppendorf 5415, 13792 g). Supernatants are analyzed using a Mass Spectrometer. The sample (supernatant fraction, 5 μL) is injected into the LC-MS/MS instrument. • Chromatographic Conditions: LC-MS/MS: API 4000 LC-MS/MS Software: Analyst Version 1.6.1 Column Phenomenex Synergy 30*4.6*5μ Column Oven: 40° C. Mode: ESI Positive Injection volume: 5 μl Flow Rate: […] Buffer: 0.1% Formic acid in Water Method: Isocratic Method/Gradient Composition: A) 0.1% Formic acid in Water B) 0.1% Formic acid in Methanol
After the concentration of free drug and total drug has been determined by LCMS/MS, percent plasma protein binding can be calculated as follows:
[formula] Following this protocol, % fraction unbound in plasma from different species can be also measured.

`CN=S(C)(=O)c1cnc(N2CCN(C(C)c3ccc4scnc4c3)CC2)nc1` (single isomer, unassigned) [Example 37]: the IC50 in series [1] was below 50 nM. The unbound share (fraction unbound) at 5 h, 1 µM in series [2] was determined as 0.278.
The like results for `CCN=S(C)(=O)c1cnc(N2CCN(C(C)c3ccc4sc(C)nc4c3)CC2)nc1` (racemic) [Example 48, (ethylimino)(methyl)(2-(4-(1-(2-methylbenzo[d]thiazol-5-yl)ethyl)piperazin-1-yl)pyrimidin-5-yl)-λ^6-sulfanone] were, in that order, below 50 nM and 0.0534.
On to `CCS(=N)(=O)c1cnc(N2CCN(C(C)c3ccc4c(c3)OCC4)CC2)nc1` (racemic) [Example 3, (2-(4-(1-(2,3-dihydrobenzofuran-6-yl)ethyl)piperazin-1-yl)pyrimidin-5-yl)(ethyl)(imino)-λ^6-sulfanone], for which, in series [1], the IC50 is below 50 nM. Further, the fraction unbound at 5 h, 1 µM in series [2] amounted to 0.25.
`CCN=S(C)(=O)c1cnc(N2CCN(C(C)c3ccc4scnc4c3)CC2)nc1` (racemic) [Example 27]: in series [1], the half-maximal inhibitory concentration (IC50) was below 50 nM. Also, the fraction unbound at 5 h, 1 µM in series [2] worked out at 0.186.
`CC(c1ccc2c(c1)OCC2)N1CCN(c2ncc(S(C)(=N)=O)cn2)CC1` (single isomer, unassigned) [Example 14]: in series [1], the IC50 is below 50 nM. In series [2], the “% fraction unbound in mouse plasma” value amounted to 35.63%.
On to `CC(c1ccc2c(c1)OCC2)N1CCN(c2ccc(S(C)(=N)=O)cn2)CC1` (racemic) [Example 7, (6-(4-(1-(2,3-dihydrobenzofuran-6-yl)ethyl)piperazin-1-yl)pyridin-3-yl)(imino)(methyl)-Δ^6-sulfanone], for which, in series [1], the IC50 is below 50 nM. Further, the fraction unbound at 5 h, 1 µM in series [2] is 0.294.
As to `CN=S(C)(=O)c1ccc(N2CCN(C(C)c3ccc4c(c3)OCC4)CC2)nc1` (single isomer, unassigned) [Example 20, (6-(4-((S)-1-(2,3-dihydrobenzofuran-6-yl)ethyl)piperazin-1-yl)pyridin-3-yl)(methyl)(methylimino)-λ^6-sulfanone or (6-(4-((R)-1-(2,3-dihydrobenzofuran-6-yl)ethyl)piperazin-1-yl)pyridin-3-yl)(methyl)(methylimino)-λ^6-sulfanone], the IC50 in series [1] was below 50 nM. Also, the fraction unbound at 5 h, 1 µM in series [2] was determined as 0.223.
The like results for `CC(c1ccc2c(c1)OCC2)N1CCN(c2ncc(S(C)(=N)=O)cn2)CC1` (racemic) [Example 1, (2-(4-(1-(2,3-dihydrobenzofuran-6-yl)ethyl)piperazin-1-yl)pyrimidin-5-yl)(imino)(methyl)λ^6-sulfanone] were, in that order, below 50 nM and 0.393.
The like results for `CC(c1ccc2c(c1)OCCC2)N1CCN(c2ncc(S(C)(=N)=O)cn2)CC1` (racemic) [Example 21, (2-(4-(1-(chroman-7-yl)ethyl)piperazin-1-yl)pyrimidin-5-yl)(imino)(methyl)-λ^6-sulfanone] were, in that order, 50 to 200 nM and 0.222.
On to `CC(c1ccc2scnc2c1)N1CCN(c2ncc(S(C)(=N)=O)cn2)CC1` (single isomer, unassigned) [Example 36], for which, in series [1], the IC50 was below 50 nM. Also, the “% fraction unbound in mouse plasma” value in series [2] was 45.51%.
On to `CC(c1ccc2scnc2c1)N1CCN(c2ccc(S(C)(=N)=O)cc2)CC1` (racemic) [Example 33, (4-(4-(1-(benzo[d]thiazol-5-yl)ethyl)piperazin-1-yl)phenyl)(imino)(methyl)-λ^6-sulfanone], for which the IC50 in series [1] lay in the range of 50 to 200 nM. Also, the fraction unbound at 5 h, 1 µM in series [2] was 0.132.
